O=C(Nc1ccc(F)cc1F)c1cccnc1Oc1cccc(C(F)(F)F)c1
solubility (mole fraction)
Settings | 278.15 K | 283.15 K | 288.15 K | 293.15 K | 298.15 K | 303.15 K | 308.15 K | 313.15 K | 318.15 K | 323.15 K
in ethanol | 0.000246 | 0.000325 | 0.000425 | 0.00055 | 0.000703 | 0.000894 | 0.00113 | 0.00142 | 0.00177 | 0.0022
in ethyl acetate | 0.0105 | 0.0125 | 0.015 | 0.0176 | 0.0206 | 0.024 | 0.0281 | 0.0322 | 0.0371 | 0.0429
in isopropanol | 4.4e-05 | 7.09e-05 | 0.000114 | 0.000186 | 0.000292 | 0.000456 | 0.00069 | 0.00104 | 0.00158 | 0.00232
in methanol | 0.000223 | 0.0003 | 0.000385 | 0.000489 | 0.000633 | 0.000799 | 0.000999 | 0.00125 | 0.00155 | 0.00193
in water | 1.52e-07 | 2e-07 | 2.53e-07 | 3.15e-07 | 3.93e-07 | 4.84e-07 | 5.94e-07 | 7.19e-07 | 8.81e-07 | 1.07e-06

From BigSolDB 2.1
